Laboratory results published in patent publication US20140005163A1 (NOVARTIS AG, priority 2010, published 2014).
≈ marks a conversion by molar mass, not a printed value.

Legend:
Solubility at pH 6.8 = format: physicochemical; conditions: pH 6.8, aqueous buffer, thermodynamic from solid; read-out: solubility
Summary of the method: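 Solubility was measured at pH 6.8 following the cited Zhou et al. (2007) procedure.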

[1] = tested on: PKB Ser473 phosphorylation in Rat1-myr-HA-p110 delta cells; assay: Reverse protein array assay, PKB Ser473 phosphorylation in Rat1-myr-p110 delta cells; format: cell-based; conditions: read-out: p-PKB IC50
Summary of the method: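 Measured: PKB Ser473 phosphorylation by reverse protein array in Rat1 cells expressing myr-HA-p110 alpha, beta or delta, after 30 min compound treatment at 37 °C with 0.2% DMSO vehicle.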

[2] = tested on: S6 Ribosomal Protein phosphorylation Ser235/236 in TSC1 null mouse embryo fibroblast (MEF) cells; assay: Reverse protein array assay, S6 Ribosomal Protein phosphorylation Ser235/236 in TSC1 null MEF cells; format: cell-based; conditions: 1 h, pS6 ribosomal protein Ser235/236, 60 minutes incubation, read-out: p-S6 IC50
Summary of the method: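 TSC1−/− MEFs, seeded and held ≥20 h at 37 °C/5% CO2, were exposed to 8-step serial compound dilutions (0.02% DMSO final; DMSO vehicle control) for 60 min at 37 °C. Cells were then lysed on ice for 10 min and lysates spotted onto reverse protein array chips.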

Row | solubility (Solubility at pH 6.8) | IC50 [1] | Compound | IC50 [2]
1 | > 472 µg/mL | 12 nM | CCNc1cc(-c2ccc3ncc4c(c3c2)n(-c2cn(CC)nc2C)c(=O)n4C)cnc1COC [Example 157, 8-(5-Ethylamino-6-methoxymethyl-pyridin-3-yl)-1-(1-ethyl-3-methyl-1H-pyrazol-4-yl)-3-methyl-1,3-dihydro-imidazo[4,5-c]quinolin-2-one] | 1 nM
2 | 433 µg/mL (≈ 981 µM) | < 5 nM | CCNc1cc(-c2ccc3ncc4c(c3c2)n(-c2cn(C)nc2C)c(=O)n4C)cnc1CC [Example 161, 1-(1,3-Dimethyl-1H-pyrazol-4-yl)-8-(6-ethyl-5-ethylamino-pyridin-3-yl)-3-methyl-1,3-dihydro-imidazo[4,5-c]quinolin-2-one] | 2 nM
3 | 59 µg/mL (≈ 138 µM) | 48 nM | CCN(C)c1cncc(-c2ccc3ncc4c(c3c2)n(-c2cn(C)nc2C)c(=O)n4C)c1 [Example 176, 1-(1,3-Dimethyl-1H-pyrazol-4-yl)-8-[5-(ethyl-methyl-amino)-pyridin-3-yl]-3-methyl-1,3-dihydro-imidazo[4,5-c]quinolin-2-one] | 2 nM
4 | 84 µg/mL (≈ 192 µM) | 51 nM | Cc1nn(C)cc1-n1c(=O)n(C)c2cnc3ccc(-c4cncc(OC(F)F)c4)cc3c21 [Example 183, 8-(5-Difluoromethoxy-pyridin-3-yl)-1-(1,3-dimethyl-1H-pyrazol-4-yl)-3-methyl-1,3-dihydro-imidazo[4,5-c]quinolin-2-one] | 1 nM
5 | 8 µg/mL (≈ 19.3 µM) | 16 nM | COc1cc(-c2ccc3ncc4c(c3c2)n(-c2cn(C)nc2C)c(=O)n4C)cnc1C [Example 184, 1-(1,3-Dimethyl-1H-pyrazol-4-yl)-8-(5-methoxy-6-methyl-pyridin-3-yl)-3-methyl-1,3-dihydro-imidazo[4,5-c]quinolin-2-one] | 5 nM
6 | > 512 µg/mL | 772 nM | Cc1nn(CC(=O)N2CCC2)cc1-n1c(=O)n(C)c2cnc3ccc(-c4cncc(OC(C)C)c4)cc3c21 [Example 205, 1-[1-(2-Azetidin-1-yl-2-oxo-ethyl)-3-methyl-1H-pyrazol-4-yl]-8-(5-isopropoxy-pyridin-3-yl)-3-methyl-1,3-dihydro-imidazo[4,5-c]quinolin-2-one] | 37 nM
7 | 3 µg/mL (≈ 6.54 µM) | 105 nM | CCOc1cc(-c2ccc3ncc4c(c3c2)n(-c2cn(CCO)nc2C)c(=O)n4C)cnc1C [Example 211.2, 8-(5-Ethoxy-6-methyl-pyridin-3-yl)-1-[1-(2-hydroxy-ethyl)-3-methyl-1H-pyrazol-4-yl]-3-methyl-1,3-dihydro-imidazo[4,5-c]quinolin-2-one] | 11 nM
8 | > 457 µg/mL | 330 nM | Cc1nn(C(C)C)cc1-n1c(=O)n(C)c2cnc3ccc(-c4cncc(C(C)(C)O)c4)cc3c21 [Example 215.1, 8-[5-(1-Hydroxy-1-methyl-ethyl)-pyridin-3-yl]-1-(1-isopropyl-3-methyl-1H-pyrazol-4-yl)-3-methyl-1,3-dihydro-imidazo[4,5-c]quinolin-2-one] | 39 nM
9 | > 443 µg/mL | 115 nM | CCn1cc(-n2c(=O)n(C)c3cnc4ccc(-c5cncc(C(C)(C)O)c5)cc4c32)c(C)n1 [Example 215.4, 1-(1-Ethyl-3-methyl-1H-pyrazol-4-yl)-8-[5-(1-hydroxy-1-methyl-ethyl)-pyridin-3-yl]-3-methyl-1,3-dihydro-imidazo[4,5-c]quinolin-2-one] | < 0.5 nM

The remaining lines, values behind:

Row | Compound | solubility (Solubility at pH 6.8) | IC50 [1] | IC50 [2]
10 | CCNc1cc(-c2ccc3ncc4c(c3c2)n(-c2c(C)nn(C)c2C)c(=O)n4C)cnc1Cl [Example 153.1, 8-(6-Chloro-5-ethylamino-pyridin-3-yl)-3-methyl-1-(1,3,5-trimethyl-1H-pyrazol-4-yl)-1,3-dihydro-imidazo[4,5-c]quinolin-2-one] | 6 µg/mL (≈ 13 µM) | 19 nM | 4 nM
11 | CCNc1cc(-c2ccc3ncc4c(c3c2)n(-c2cn(C(C)C)nc2C)c(=O)n4C)cnc1CO [Example 155.3, 8-(5-Ethylamino-6-hydroxymethyl-pyridin-3-yl)-1-(1-isopropyl-3-methyl-1H-pyrazol-4-yl)-3-methyl-1,3-dihydro-imidazo[4,5-c]quinolin-2-one] | > 472 µg/mL | 9 nM | 1 nM
12 | CCNc1cc(-c2ccc3ncc4c(c3c2)n(-c2c(C)nn(C)c2C)c(=O)n4C)cnc1CO [Example 155.4, 8-(5-Ethylamino-6-hydroxymethyl-pyridin-3-yl)-3-methyl-1-(1,3,5-trimethyl-1H-pyrazol-4-yl)-1,3-dihydro-imidazo[4,5-c]quinolin-2-one] | 62 µg/mL (≈ 136 µM) | 59 nM | 18 nM
13 | CNc1cc(-c2ccc3ncc4c(c3c2)n(-c2cn(C)nc2C)c(=O)n4C)cnc1COC [Example 159, 1-(1,3-Dimethyl-1H-pyrazol-4-yl)-8-(6-methoxymethyl-5-methylamino-pyridin-3-yl)-3-methyl-1,3-dihydro-imidazo[4,5-c]quinolin-2-one] | > 444 µg/mL | 24 nM | 8 nM
14 | CCOCc1cc(-c2ccc3ncc4c(c3c2)n(-c2cn(C)nc2C)c(=O)n4C)cnc1N [Example 166.1, 8-(6-Amino-5-ethoxymethyl-pyridin-3-yl)-1-(1,3-dimethyl-1H-pyrazol-4-yl)-3-methyl-1,3-dihydro-imidazo[4,5-c]quinolin-2-one] | 33 µg/mL (≈ 74.4 µM) | 57 nM | 3 nM
15 | Cn1cc(-n2c(=O)n(C)c3cnc4ccc(-c5cnc(N)c(CO)c5)cc4c32)c(Cl)n1 [Example 169.3, 8-(6-Amino-5-hydroxymethyl-pyridin-3-yl)-1-(3-chloro-1-methyl-1H-pyrazol-4-yl)-3-methyl-1,3-dihydro-imidazo[4,5-c]quinolin-2-one] | 10 µg/mL (≈ 22.9 µM) | 41 nM | 1.32 nM
16 | CCOc1cc(-c2ccc3ncc4c(c3c2)n(-c2cn(C)nc2C)c(=O)n4C)cnc1COC [Example 197.1, 1-(1,3-Dimethyl-1H-pyrazol-4-yl)-8-(5-ethoxy-6-methoxymethyl-pyridin-3-yl)-3-methyl-1,3-dihydro-imidazo[4,5-c]quinolin-2-one] | 361 µg/mL (≈ 787 µM) | 132 nM | 7 nM
17 | Cc1nn(C)cc1-n1c(=O)[nH]c2cnc3ccc(-c4cnc(N(C)C)nc4)cc3c21 [Example 207, 8-(2-Dimethylamino-pyrimidin-5-yl)-1-(1,3-dimethyl-1H-pyrazol-4-yl)-1,3-dihydro-imidazo[4,5-c]quinolin-2-one] | 18 µg/mL (≈ 44.9 µM) | 238 nM | 22 nM
18 | CCNc1cc(-c2ccc3ncc4c(c3c2)n(-c2c(C)nn(CCO)c2C)c(=O)n4C)cnc1C [Example 210, 8-(5-Ethylamino-6-methyl-pyridin-3-yl)-1-[1-(2-hydroxy-ethyl)-3,5-dimethyl-1H-pyrazol-4-yl]-3-methyl-1,3-dihydro-imidazo[4,5-c]quinolin-2-one] | 445 µg/mL (≈ 944 µM) | 53 nM | 32 nM
19 | Cc1nn(C)cc1-n1c(=O)n(C)c2cnc3ccc(-c4ccc(N5CC[C@@H](O)C5)nc4)cc3c21 [Example 212.1, 1-(1,3-Dimethyl-1H-pyrazol-4-yl)-8-[6-((R)-3-hydroxy-pyrrolidin-1-yl)-pyridin-3-yl]-3-methyl-1,3-dihydro-imidazo[4,5-c]quinolin-2-one] | 55 µg/mL (≈ 121 µM) | 768 nM | 7 nM
